In general, solubility refers to the concentration that dissolves in the medium under given conditions.

Data on seven compounds can be found in patent US20080261986A1, “PHARMACEUTICAL FORMULATIONS FOR IONTOPHORETIC DELIVERY OF AN ANTI-FUNGAL DRUG” (priority 2007, published 2008).

Data set [1] in a line: Approximate visual solubility in receiver fluids. The format is physicochemical. How it is done:
The visual solubility of each receiver fluid shown in Table 3 below was initially tested for ketoconazole (BUFA B.V.) and ciclopirox (PCAS Finland Oy). Additional solubility testing was then conducted for terbinafine hydrochloride (QueMaCo Ltd.), amorolfine hydrochloride (Inter-Chemical Ltd.) and itraconazole EP (Shamrock, UK) and the results are shown in Table 3.
The solubility of terbinafine hydrochloride, fluconazole, itraconazole and amorolfine hydrochloride was determined in PBS and 5% Tween 80 and the results are summarized in Table 4.

Data set [2] relates to C. albicans. Description: Permeation across full thickness nail (ChubTur cell), receiver fluid assayed by C. albicans growth absorbance. The format is cell-based. The following applies: for Absorbance: replicates 1-3, full thickness human nail, C. albicans, 600 nm; for permeation across full thickness nail: all conditions tested (cathodal, anodal, passive).
Data set [3] is classed as in vitro ADME, human. How it is done:
Prehydrated cadaver finger nails (approximately 0.5-0.7 mm thickness) or bovine hooves (approximately 0.25 mm thickness) were used for comparing different formulations as described in Examples 8-10. […] A nail adaptor was required to accommodate the curvature of the nail, but not for the hoof. The receptor compartments were filled with receiver fluid (3-5 ml water pH 3) and the drug formulations described above (0.5-2 mL) were placed in the donor compartment. […] Receptor levels of drug permeated were analyzed. Aliquots removed were replaced with an equal amount of buffer, and were assayed by HPLC to measure terbinafine HCl permeation through the nail or hoof. Control passive experiments were conducted in the same way except for the application of electric current. Nails or hooves were taken out of the FDC and drug extracted as described in Example 4. The drug loading levels in the nail or hoof were expressed as mg terbinafine HCl per g of nail or hoof. Data were expressed as means ±standard deviations. All experiments were performed in triplicate. […] The four formulations were evaluated for permeation of terbinafine HCl through the nail and loading in the nail as described in Example 8. Formulations containing benzoic acid improved permeation of terbinafine HCl through the nail over the base glycerin formulation without benzoic acid (FIG. 7A).

Setting [4] is: aqueous with cosolvent or surfactant or cyclodextrin, Approximate visual solubility.

Converted amounts (≈) assume the structure as drawn. “And” between values parts separate entries of the source, which are not always exact repeats. Identical values can stand only once. Counter-ions that a name gives are not always drawn. Like-named read-outs stand apart in the source and are kept apart here. Where only a bound is given, the exact number is not on record here.

Consider `CC(=O)N1CCN(c2ccc(OCC3COC(Cn4ccnc4)(c4ccc(Cl)cc4Cl)O3)cc2)CC1` (stereo not shown) [ketoconazole], for which the “solubility in receiver fluid (in words)” value in data set [1] (PBS and 5% Tween 80) was “good solubility”. The solubility in data set [1] (aqueous buffer, 1% Propylene glycol in PBS, read-out: Approximate visual solubility) is under 554 µg/mL; in data set [1] (aqueous with cosolvent or surfactant or cyclodextrin, 20 mM B hydroxylpropyl cyclodextrin in PBS, read-out: Approximate visual solubility) it was under 1030 µg/mL; in data set [1] (aqueous with cosolvent or surfactant or cyclodextrin, 200 mM B hydroxylpropyl cyclodextrin in PBS, read-out: Approximate visual solubility), 2120 to 2370 µg/mL (≈ 3990 to 4460 µM); in data set [1] (aqueous with cosolvent or surfactant or cyclodextrin, 0.5% Tween-80 in PBS, read-out: Approximate visual solubility) it was under 412 µg/mL; in data set [1] (aqueous with cosolvent or surfactant or cyclodextrin, 1% Tween-80 in PBS, read-out: Approximate visual solubility), under 458 µg/mL; in data set [1] (aqueous with cosolvent or surfactant or cyclodextrin, 2% Tween-80 in PBS, read-out: Approximate visual solubility) it was under 646 µg/mL. In addition, the solubility in data set [1] (aqueous with cosolvent or surfactant or cyclodextrin, 5% Ethanol in PBS, read-out: Approximate visual solubility) is under 910 µg/mL; in data set [1] (aqueous with cosolvent or surfactant or cyclodextrin, 5% Propylene glycol in PBS, read-out: Approximate visual solubility), under 472 µg/mL; in data set [1] (aqueous with cosolvent or surfactant or cyclodextrin, 5% Tween-80 in PBS, read-out: Approximate visual solubility), 1280 to 1530 µg/mL (≈ 2410 to 2880 µM); in data set [1] (aqueous with cosolvent or surfactant or cyclodextrin, 10% Ethanol in PBS, read-out: Approximate visual solubility) it was under 438 µg/mL; in data set [1] (aqueous with cosolvent or surfactant or cyclodextrin, 20% Ethanol in PBS, read-out: Approximate visual solubility), under 398 µg/mL.
In turn, `CCC(C)(C)c1ccc(CC(C)CN2C[C@@H](C)O[C@@H](C)C2)cc1` (stereo partly shown) [Amorolfine hydrochloride, amorolfine hydrochloride] showed a solubility in data set [1] (setting [4]) of 2050 to 2570 µg/mL. Moreover, the Absorbance in data set [2] (Anodal iontophoresis (1000 μA, 1 hr), listed as Amorolifine, hydrochloride) was 0.54 and 0.44 and 0.40; in data set [2] (Cathodal iontophoresis, controls: no C. albicans 0.037-0.039, no compound 0.126-0.160, listed as Amorolifine, hydrochloride) it was 0.50 and 0.54 and 0.49; in data set [2] (Passive permeation, listed as Amorolifine, hydrochloride), 0.48 and 0.59 and 0.54. In addition, in data set [2], the “permeation across full thickness nail” value is reported as “did not show permeation of the nail under any conditions tested”.
Regarding `Cc1cc(C2CCCCC2)n(O)c(=O)c1` [ciclopirox], the “solubility in receiver fluid (in words)” value in data set [1] is “good solubility”. Also, in data set [1] (aqueous buffer, Approximate visual solubility), the solubility is under 388 µg/mL. Besides, the Absorbance in data set [2] (Anodal iontophoresis (1000 μA, 1 hr), listed as Ciclopirox) was 0.045 and 0.044 and 0.068; in data set [2] (Cathodal iontophoresis, controls: no C. albicans 0.037-0.039, no compound 0.126-0.160, listed as Ciclopirox), 0.075 and 0.085 and 0.079; in data set [2] (Passive permeation, listed as Ciclopirox) it was 0.075 and 0.046. The “permeation across full thickness nail” value in data set [2] was “appeared to penetrate the nail regardless of whether current was applied”.
Take `CCC(C)n1ncn(-c2ccc(N3CCN(c4ccc(OCC5COC(Cn6cncn6)(c6ccc(Cl)cc6Cl)O5)cc4)CC3)cc2)c1=O` (stereo not shown) [Itraconazole, itraconazole]: the solubility in data set [1] (setting [4]) is under 330 µg/mL.
In the case of PEG 400, in data set [3], the “permeation of terbinafine HCl through the nail (in words)” value was “further improved the permeation of terbinafine HCl through the nail”.
As for `Cc1cc(C2CCCCC2)n(O)c(=O)c1` [Ciclopirox olamine, ciclopirox olamine], the Absorbance in data set [2] (Anodal iontophoresis (1000 μA, 1 hr)) was 0.042 and 0.079; in data set [2] (Cathodal iontophoresis, controls: no C. albicans 0.037-0.039, no compound 0.126-0.160) it was 0.048; in data set [2] (Passive permeation), 0.157 and 0.129. The “permeation across full thickness nail (detection in receiver fluid)” value in data set [2] (both cathodal and anodal iontophoresis) is on record as “detected in the receiver fluid”; in data set [2] (passive delivery), “not with passive delivery”.
Regarding `OC(Cn1cncn1)(Cn1cncn1)c1ccc(F)cc1F` [Fluconazole, fluconazole], the solubility in data set [1] (aqueous with cosolvent or surfactant or cyclodextrin, PBS and 5% Tween 80 (Table 4), read-out: Approximate visual solubility) was in the range of 1910 to 2170 µg/mL (≈ 6240 to 7090 µM).
